Results on eleven compounds are retold here after patent publication US20250314656A1, “GENETICALLY ENCODED FLUORESCENT INDICATOR OF D-2-HYDROXYGLUTARATE” (priority 2024, published 2025).

Molecules are shown by their SMILES. Read-outs that look alike come from different tables or passages of the source.

The conditions of data set [1]: several freeze-thaw cycles or exposure to excess heat; cited from earlier work.
Data set [2] relates to IDH1 wildtype U87MG cells. Description: Live-cell D2HGlo FRET ratio after inhibitor treatment, wildtype cells. It is filed as cell-based, human. As for the experimental part:
(A) Left: Representative image of a wild-type IDH1 U87MG cell expressing Cyto-D2HGlo. Scale bar is 25 μm. […] (B) Left: Representative image of a wild-type IDH1 U87 clel cell expressing Nuc-D2HGlo. Scale bar is 25 μm. […] (C) Left: Representative image of a wild-type IDH1 U87 cell expressing Mito-D2HGlo. Scale bar is 25 μm.
(§1) Statistical analysis was performed using a one-way ANOVA test with post hoc Tukey (**, P<0.01; *, P<0.05). […] Statistical analysis was performed using a one-way ANOVA test with post hoc Tukey (*, P<0.05);
Fluorescence Live-Cell Imaging.

In data set [3] the test system is IDH1 wildtype U87MG cells. Put plainly: D-2-HG concentration in cell culture supernatant measured with purified D2HGlo, wildtype cells. The format is cell-based, human. As for the experimental part: as §1
Both cell lines were left untreated or exposed to AG-120 (3 μM) for 48 hours prior to measurements. (B) Titration of purified D2HGlo with increasing concentrations of D-2-HG (100 nM-1 mM) spiked into human serum. […] (D) Titration of purified D2HGlo with increasing concentrations of D-2-HG (100 nM-1 mM) spiked into human urine. […] (F) Titration of purified D2HGlo with increasing concentrations of D-2-HG (100 nM-1 mM) spiked into aCSF.
Cell Culture Supernatant: U87MG IDH1 wildtype and mutant cells were plated at 60% confluence in 6-well plates. For some experiments, AG-120 in DMSO (3 μM), Glutaminase inhibitor (1 μM), or 2-DG (10 mM) was added to the cell culture media before plating the cells. For all conditions and cell lines, the cell culture supernatant was collected after 48 hours of incubation at 37° C. 10 μL of cell culture media was mixed with 90 μL of purified D2HGlo (5 μM), and the FRET ratios were collected. D-2-HG levels were estimated by using the titration curve as a calibration curve and converting the FRET ratios of unknowns into concentrations. Biological Fluids: Urine and serum were collected from three healthy donors while aCSF was purchased (Tocris Bioscience).

In data set [4] the test system is IDH1 wildtype U87MG cells. Put plainly: FRET imaging of D2HGlo in IDH1 wildtype U87MG cells. It is filed as cell-based, human. Particulars: Compound 968 1 μM, approx. 5.5 minutes. How it is done:
. […] . This evidence further supports the specificity of D2HGlo to endogenous D-2-HG in situ. […] . […] .
The inventors utilized the glutaminase C inhibitor Compound 968 and 2-Deoxy-D-glucose (2-DG), an inhibitor of glycolysis. […] . Cell Culture and Transfection. […] Cells were transfected 24 hours after plating with 1.0 μg D2HGlo constructs and 3.0 μL Trans-IT®-LT1 transfection reagent (Mirus Bio, Madison, WI). The cells were allowed to express for 48 hours before imaging.
Fluorescence Live-Cell Imaging. […] The standard imaging parametersD2HGlo sensors were: 457 excited at 458 nm laser line and 482 nm and 531 nm and the fluorescent signal was collected using a BA 480-495 emission filter (ECFP) and a BA 535-565 emission filter (FRET). The FRET ratio was determined by dividing the FRET signal by the ECFP signal. […] . The maximum FRET ratio was determined for the entire time-course and normalized to the baseline FRET ratio. […] A region of interest was drawn on each cell, and the average FRET ratio within each ROI was determined. In some sets of experiments, cells were treated with AG-120 (3 μM) for 48 hours prior to FRET ratio collection. Alternatively, glutaminase inhibitor (1 μM), or 2-DG (10 mM) were added to imaging wells after collecting baseline FRET values for 30 seconds.

Data set [5] addresses D2HGlo (Variant 2, SEQ ID NO: 4; Variant 2 truncated DhdR SEQ ID NO: 2, two residues removed from each terminus, between ECFP and cpVenus173) (Achromobacter denitrificans, UniProt A0ABZ3FXY3). The format is binding, Achromobacter denitrificans NBRC 15125. To be noted: concentrations up to 100 μM.
A further data set relates to 2-HG. Particulars: newly diagnosed and advanced cancer; cited from earlier work.

On to `O=C(O)CC[C@@H](O)C(=O)O` [Variant D-2-HG, D-2-hydroxyglutarate], for which the “stability in biological fluids” value in data set [1] is recorded as “remains stable”.
In the case of `O=CC[C@@H](O)[C@H](O)[C@H](O)CO` [Variant 2-DG, 2-Deoxy-D-glucose], in data set [2] (2-DG 10 mM, approximately 5.5 minutes), the “acute change of Cyto-D2HGlo FRET ratio” value is on record as “unaffected”.
On to `CN(C)c1ccc(C2Nc3ccc4ccccc4c3C3=C2C(=O)CC(C)(C)C3)cc1Br` (stereo not shown) [Compound 968], for which the “D-2-HG accumulation in supernatant” value in data set [3] (Compound 968 1 μM for 48 hours) is given as “nor did it affect D-2-HG accumulation in cell culture supernatants”. The “acute change of FRET ratio (Cyto-D2HGlo)” value in data set [4] is given as “did not elicit any changes in FRET ratio”.
In the case of `N[C@@H](CCC(=O)O)C(=O)O` [Glutamate, L-glutamic acid], the “response of D2HGlo (FRET ratio) to metabolite” value (from here on “response of D2HGlo (FRET ratio)”) in data set [5] is reported as “does not respond”; in data set [5] (listed as glutamate) it was “did not respond”.
With `O=C(O)CCC(=O)C(=O)O` [α-ketoglutarate, α-ketoglutaric acid], the “response of D2HGlo (FRET ratio)” value in data set [5] is “does not respond”.
Same read-out and setting: with `O=C(O)CC(O)(CC(=O)O)C(=O)O` [Citrate] the entry was “does not respond”.
With `N#Cc1ccnc(N2C(=O)CC[C@H]2C(=O)N(c2cncc(F)c2)[C@H](C(=O)NC2CC(F)(F)C2)c2ccccc2Cl)c1` [AG-120], the “effect on 2-HG levels in patients” value in the data set with 2-HG is “reduction of 2-HG to levels similar to those seen in healthy populations”. Besides, the “D-2-HG concentration in supernatant” value in data set [3] (AG-120 3 μM for 48 hours) was 2.79 ± 0.41 µM. In addition, the “effect on D-2-HG levels” value in data set [2] (AG-120 3 μM for 48 hours) is given as “had no effect on D-2-HG levels”.
Regarding `O=C(O)CCC(=O)O` [Succinate, succinic acid], in data set [5], the “response of D2HGlo (FRET ratio)” value is “does not respond”.
Turning to `C[C@H](O)C(=O)O` [Lactate, sodium L-lactate], the “response of D2HGlo (FRET ratio)” value in data set [5] is “does not respond”; in data set [5] (listed as lactate), “did not respond”.
As for `O=C(O)CC(=O)C(=O)O` [Oxaloacetate, Oxaloacetic acid], the “response of D2HGlo (FRET ratio)” value in data set [5] was “does not respond”.
Same read-out and setting: with `O=C(O)CC(O)C(=O)O` (racemic) [Malate, sodium hydrogen DL-malate] the entry was “does not respond”.
